According to ChEMBL document CHEMBL1145191, “NMR studies reveal structural differences between the gallium and yttrium complexes of DOTA-D-Phe1-Tyr3-octreotide” (J Med Chem, 2005):

Assay: Half-life time of the compound
Assay type: ADME

- T1/2: 1.13 h
Substance: GaIII-DOTATOC
